This is an account of results in US6525001B1, “Substituted pyrimidine and pyridine herbicides” (Mid-American Commercialization Corporation, priority 1997, dated 2003).

Common to all, as to assay type: in vivo
Holding throughout (details): PREEMERGENCE

Assay [1] deals with cotton (Gossypium hirsutum). The assay is described as follows: Test C. Set-up: key: 0 was no effect; 100 was complete control.
The test system of assay [2] is johnsongrass (Sorghum halepense). The assay is described as follows: Test C. Set-up: key: 0 was no effect; 100 was complete control.
In assay [3] the test system is soybean (Glycine max). The assay is described as follows: Test C. Set-up: key: 0 was no effect; 100 was complete control.
Assay [4] relates to Spanishneedles (Bidens bipinnata). The assay is described as follows: Test E pre-/postemergence/post directed. Details: key: 0 is no effect; 100 is complete control. In a few lines:
(§1)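 Injury was scored visually on a 0 to 100 scale (100 = complete control) 13 to 21 days after treatment of greenhouse-grown plants. Test chemicals, in a surfactant-containing non-phytotoxic solvent, were sprayed onto soil within a day of planting, onto plants at the two to four leaf stage, or directed at the base of the plants.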

In assay [5] the test system is eastern black nightshade (Solanum ptycanthum). The assay is described as follows: Test C. Set-up: key: 0 was no effect; 100 was complete control.
Assay [6] has as its system rape (Brassica napus). The assay is described as follows: Test D. Set-up: key: 0 is no effect; 100 is complete control.
The subject of assay [7] is pitted morningglory (Ipomoea lacunosa). The assay is described as follows: Test E pre-/postemergence/post directed. Set-up: key: 0 is no effect; 100 is complete control. In a few lines:
as §1

The subject of assay [8] is blackgrass (Alopecurus myosuroides). The assay is described as follows: Test D.
For assay [9], the system named is winter wheat (Triticum aestivum). The assay is described as follows: Test D. Set-up: key: 0 is no effect.
For assay [10], the system named is kochia (Kochia scoparia). The assay is described as follows: Test D. Set-up: key: 0 is no effect; 100 is complete control.
Assay [11] has as its system ivyleaf speedwell (Veronica hederaefolia). The assay is described as follows: Test D. Set-up: key: 0 is no effect; 100 is complete control.

Consider `Cc1cnc(-n2ccc(C(F)(F)F)n2)nc1Cc1cccc(OC(F)(F)F)c1` [Compound 42], for which the “Plant response rating, Cotton” value in assay [1] (Rate 35 g/ha) was found to be 30; in assay [1] (Rate 70 g/ha) it was 60; in [1] (Rate 140 g/ha), 60. Moreover, the “Plant response rating, Johnsongrass” value is 70 in assay [2] (Rate 35 g/ha), 70 in assay [2] (Rate 70 g/ha) and 85 in [2] (Rate 140 g/ha). The “Plant response rating, Soybean” value in assay [3] (Rate 35 g/ha) turned out to be 0; in assay [3] (Rate 70 g/ha), 5; in assay [3] (Rate 140 g/ha) it was 35. In [4] (Rate 125 g/ha), the “Plant response rating, Spanishneedles” value is 100. The “Plant response rating, E. blacknightsh” value in [5] (Rate 35 g/ha) worked out at 90; in assay [5] (Rate 70 g/ha) it was 95; in [5] (Rate 140 g/ha), 95.

Consider `Cc1cnc(-n2cnc(C(F)(F)F)n2)nc1Cc1cccc(C(F)(F)F)c1` [Compound 43], for which the entries for the “Plant response rating, Cotton” value in [1] (Rate 35 g/ha), in assay [1] (Rate 70 g/ha) and in [1] (Rate 140 g/ha) were 0, 0 and 10, respectively. Moreover, the “Plant response rating, Johnsongrass” value in assay [2] (Rate 35 g/ha) is recorded as 10; in assay [2] (Rate 70 g/ha) it was 30; in [2] (Rate 140 g/ha), 30. Besides, the entries for the “Plant response rating, Soybean” value in [3] (Rate 35 g/ha), in [3] (Rate 70 g/ha) and in assay [3] (Rate 140 g/ha) were 0, 5 and 55, respectively. Besides, the “Plant response rating, E. blacknightsh” value in [5] (Rate 35 g/ha), in assay [5] (Rate 70 g/ha) and in assay [5] (Rate 140 g/ha) was 100 each time.

For `COc1cnc(-c2ccc(C(F)(F)F)cc2)nc1Cc1cccc(C(F)(F)F)c1` [Compound 23], the “Plant response rating, Cotton” value stood at 5 in assay [1] (Rate 35 g/ha), 75 in assay [1] (Rate 70 g/ha) and 75 in assay [1] (Rate 140 g/ha). Also, the “Plant response rating, Johnsongrass” value in assay [2] (Rate 35 g/ha) was found to be 5; in [2] (Rate 70 g/ha), 20; in assay [2] (Rate 140 g/ha), 80. Moreover, the “Plant response rating, Soybean” value in [3] (Rate 35 g/ha) was 5; in [3] (Rate 70 g/ha), 5; in assay [3] (Rate 140 g/ha) it was 10. For the same molecule, the “Plant response rating, Spanishneedles” value in assay [4] (Rate 125 g/ha) and in assay [4] (Rate 250 g/ha) was 100 throughout. Moreover, the “Plant response rating, E. blacknightsh” value in assay [5] (Rate 35 g/ha) amounted to 95; in [5] (Rate 70 g/ha), 100; in assay [5] (Rate 140 g/ha) it was 100.

For the molecule `Cc1cnc(-n2ccc(C(F)(F)F)n2)nc1Cn1ccc(C(F)(F)F)n1` [Compound 52], the figures for the “Plant response rating, Cotton” value in [1] (Rate 35 g/ha), in assay [1] (Rate 70 g/ha) and in assay [1] (Rate 140 g/ha) were 0, 0 and 70, respectively. The “Plant response rating, Johnsongrass” value amounted to 40 in assay [2] (Rate 35 g/ha), 50 in [2] (Rate 70 g/ha) and 80 in assay [2] (Rate 140 g/ha). For the same molecule, the results for the “Plant response rating, Soybean” value in assay [3] (Rate 35 g/ha), in [3] (Rate 70 g/ha) and in assay [3] (Rate 140 g/ha) were 0, 55 and 70, respectively. Further, the “Plant response rating, Rape” value came to 50 in assay [6] (Rate 31 g/ha), 60 in assay [6] (Rate 62 g/ha) and 100 in [6] (Rate 125 g/ha). The “Plant response rating, P. morninglory” value in assay [7] (Rate 64 g/ha) and in assay [7] (Rate 125 g/ha) was 100 in each case. Further, the “Plant response rating, Blackgrass” value in assay [8] (Rate 31 g/ha) came out at 50; in assay [8] (Rate 62 g/ha) it was 80; in assay [8] (Rate 125 g/ha) it was 90. Moreover, the “Plant response rating, Wheat (winter)” value in assay [9] (Rate 31 g/ha) is 50; in assay [9] (Rate 62 g/ha), 60; in assay [9] (Rate 125 g/ha) it was 60. Also, the “Plant response rating, Kochia” value worked out at 50 in assay [10] (Rate 31 g/ha), 80 in assay [10] (Rate 62 g/ha) and 100 in [10] (Rate 125 g/ha). Moreover, the “Plant response rating, E. blacknightsh” value turned out to be 40 in assay [5] (Rate 35 g/ha), 80 in assay [5] (Rate 70 g/ha) and 100 in assay [5] (Rate 140 g/ha).

Take `Cc1cnc(-c2ccc(C(F)(F)F)cc2)nc1C(Cl)c1cccc(C(F)(F)F)c1` (racemic) [Compound 21]: the “Plant response rating, Cotton” value in assay [1] (Rate 35 g/ha) was determined as 0; in assay [1] (Rate 70 g/ha), 5; in assay [1] (Rate 140 g/ha), 20. The “Plant response rating, Johnsongrass” value in assay [2] (Rate 35 g/ha) was determined as 0; in [2] (Rate 70 g/ha) it was 0; in [2] (Rate 140 g/ha) it was 5. The figures for the “Plant response rating, Soybean” value in [3] (Rate 35 g/ha), in assay [3] (Rate 70 g/ha) and in assay [3] (Rate 140 g/ha) were 0, 0 and 5, respectively. In addition, the entries for the “Plant response rating, E. blacknightsh” value in assay [5] (Rate 35 g/ha), in [5] (Rate 70 g/ha) and in assay [5] (Rate 140 g/ha) were 40, 80 and 85, respectively.

`CCc1cnc(-c2ccc(C(F)(F)F)cc2)nc1Cc1cccc(C(F)(F)F)c1` [Compound 22]: the “Plant response rating, Rape” value in assay [6] (Rate 62 g/ha) was determined as 20; in assay [6] (Rate 125 g/ha), 100; in assay [6] (Rate 250 g/ha), 50. For the same molecule, the “Plant response rating, Blackgrass” value was 30 in assay [8] (Rate 62 g/ha), 60 in [8] (Rate 125 g/ha) and 40 in assay [8] (Rate 250 g/ha). Further, the “Plant response rating, Wheat (winter)” value in assay [9] (Rate 62 g/ha) is reported as 0; in assay [9] (Rate 125 g/ha) it was 10; in assay [9] (Rate 250 g/ha) it was 5. Besides, the “Plant response rating, Kochia” value in [10] (Rate 62 g/ha) amounted to 10; in assay [10] (Rate 125 g/ha), 65; in assay [10] (Rate 250 g/ha), 60.

Regarding `Cc1cnc(-n2cnc(C(F)(F)F)n2)nc1Cn1ccc(C(F)(F)F)n1` [Compound 51], the “Plant response rating, Rape” value in assay [6] (Rate 31 g/ha) and in [6] (Rate 62 g/ha) was 100 in each case. The “Plant response rating, Blackgrass” value in assay [8] (Rate 31 g/ha) is 60; in assay [8] (Rate 62 g/ha), 80. The figures for the “Plant response rating, Wheat (winter)” value in [9] (Rate 31 g/ha) and in [9] (Rate 62 g/ha) were 30 and 55, respectively. Further, the “Plant response rating, Kochia” value is given as 85 in assay [10] (Rate 31 g/ha) and 80 in [10] (Rate 62 g/ha). The “Plant response rating, Ivyleaf speedwe” value in [11] (Rate 31 g/ha) and in assay [11] (Rate 62 g/ha) was 100 in each case.

With `Cc1cnc(-n2ccc(C(F)(F)F)n2)nc1C(=O)c1cccc(OC(F)(F)F)c1` [Compound 66], the “Plant response rating, Cotton” value in assay [1] (Rate 35 g/ha), in [1] (Rate 70 g/ha) and in assay [1] (Rate 140 g/ha) was 0 each time. Also, the “Plant response rating, Johnsongrass” value worked out at 0 in assay [2] (Rate 35 g/ha), 5 in [2] (Rate 70 g/ha) and 10 in assay [2] (Rate 140 g/ha). Further, the “Plant response rating, Soybean” value in [3] (Rate 35 g/ha), in assay [3] (Rate 70 g/ha) and in assay [3] (Rate 140 g/ha) was 0 throughout. Moreover, the “Plant response rating, E. blacknightsh” value in assay [5] (Rate 35 g/ha) is listed as 0; in assay [5] (Rate 70 g/ha) it was 10; in [5] (Rate 140 g/ha), 30.
